Measured values reported in patent US10815247B2, “Functionalized NANOLUC inhibitors” (PROMEGA CORPORATION, priority 2016, dated 2020).
pIC50: −log10 of the molar value. Entries after “also recorded” stand apart in the source; their conditions may differ.

What was measured:
NanoLuc [1] = target: T1, NanoLuc (Oplophorus gracilirostris, UniProt Q9GV45, A31E/A60N/A81I/F95D/I117V/K70R/L54V/L99Q/M102K/N193R/P142E/Q151K/Q38R/Q45L/V71I/Y165I); settings: inhibitor diluted to 3 uM, NanoLuc 0.4 ng/ml, 100 uM furimazine, read at two minute intervals
T1 sequence (Q9GV45 28-196 with tags or gaps with the stated changes limits assumed): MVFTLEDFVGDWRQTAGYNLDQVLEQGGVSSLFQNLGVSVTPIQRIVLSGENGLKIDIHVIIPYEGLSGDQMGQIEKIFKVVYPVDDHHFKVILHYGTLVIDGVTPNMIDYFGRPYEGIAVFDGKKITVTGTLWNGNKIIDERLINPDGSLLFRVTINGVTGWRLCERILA
Experimental: Inhibitors were diluted to 3 uM into OptiMEM+0.1% FBS. NanoLuc was diluted to 0.4 ng/ml into NanoGlo® buffer+100 uM furimazine. 50 ul of each inhibitor was added to 50 ul of the NanoLuc/furimazine/NanoGlo® solution. Samples were immediately placed in a GloMax Multi+ set to read in kinetic mode at two minute intervals.
Inhibitors were diluted to 3 uM into OptiMEM+0.1% FBS. NanoLuc was diluted to 0.4 ng/ml into NanoGlo® buffer+100 uM furimazine. 50 ul of each inhibitor was added to 50 ul of the NanoLuc/furimazine/NanoGlo® solution. Samples were immediately placed in a GloMax® Multi+ set to read in kinetic mode at two minute intervals.

Cetux-Fab-Nluc = experiment: EGFR/Cetuximab binding assay with inhibitor and PBS wash (FIG. 9); type: biochemical; settings: 1 μM inhibitor for 5 or 30 minutes, PBS wash 0, 10, 30, or 60 minutes, furimazine 10 μM
Experimental: Cetux-Fab-Nluc competes with Cetuximab for binding of EGFR. […] Following the first reading, 1 μM inhibitor is added for a period of 5 minutes or 30 minutes. The plates were subsequently washed with PBS for 0, 10, 30, or 60 minutes.

NanoLuc [2] = target: T1, NanoLuc; experiment: Inhibitor IC50 determination; type: biochemical
[3] = system: NanoBiT (LgBiT and HaloTag-HiBiT); experiment: Multiplexing luciferases with the same wavelength (FIG. 11); type: biochemical; settings: 100 uM JRW-0552 solution; LgBiT 200 nM, HaloTag-HiBiT 0.2 nM added after 50 minutes
Experimental: (§1) Three conditions are represented in this figure: 1) NanoLuc with JRW-0552; 2) NanoLuc and HiBiT with JRW-0552; and 3) NanoLuc and LgBiT with JRW-0552. At the 50 minute mark, an addition is done in each condition: 1) furimazine; 2) furimazine; and 3) LgBiT, furimazine, and HiBiT, respectively.
(§2) The following solutions were prepared in TBS+20 uM furimazine: 1) 0.4 ng/ml NanoLuc, 2) 0.4 ng/ml NanoLuc+0.2 nM HaloTag-HiBiT, 3) 0.4 ng/ml NanoLuc+200 nM LgBiT. 50 ul of each solution was combined in triplicate with a solution containing 100 uM JRW-0552 diluted into NanoGlo® buffer.
(§3) After 50 minutes, 100 ul of the following solutions were added to the corresponding samples: 1) NanoGlo® buffer+50 uM furimazine, 2) NanoGlo® buffer+50 uM furimazine+200 nM LgBiT, 3) NanoGlo® buffer+50 uM furimazine+0.2 nM HaloTag-HiBiT.

NanoLuc [4] = target: T1, NanoLuc; experiment: as above; type: biochemical; settings: 100 uM JRW-0552 solution in NanoGlo buffer, 0.4 ng/ml NanoLuc, kinetic read
Experimental: as §1, §2, §3

NanoLuc [5] = target: T1, NanoLuc; experiment: Suicide inhibition: displacement of inhibitor by furimazine upon dilution (FIG. 7); settings: 10 μM Nluc + 10 μM inhibitor 30 minutes at RT, diluted to 10 pM, furimazine 10 uM
Experimental: Following dilution, 50 ul of the dilution was combined with 50 ul of NanoGlo® assay buffer.
Following dilution, 50 ul of the dilution was combined with 50 ul of NanoGlo® assay buffer. Final furimazine concentration was 10 uM.

CCN(C(=O)Cn1c(C(=O)N[C@H]2CC[C@H](C(=O)NCCCCCCCC(=O)ON3C(=O)CCC3=O)CC2)cc2sccc21)c1cccc(C)c1 [JRW-0552]
Nluc inhibition over time (kinetic light output) (NanoLuc [1]): time dependent inhibition | reversibility of inhibition after PBS wash (Cetux-Fab-Nluc): irreversible | pIC50 (NanoLuc [2]): 8.54 | activity of NanoBiT configurations in presence of inhibitor [3]: remain operational | inhibition of NanoLuc signal (NanoLuc [4]): selectively inhibits | displacement of inhibitor by furimazine upon dilution (NanoLuc [5]): not displaced | reversibility of Nluc inhibition (NanoLuc [5]): irreversible inhibition; also recorded: irreversibly inhibit
